Experimental data taken from US7498350B2, “Oxazolidinones as antibacterial agents” (AstraZeneca AB, priority 2002, dated 2009).
≈ marks a conversion by molar mass, not a printed value.

What was measured:
Format in all cases: cell-based
[1] = tested on: Staphylococcus aureus MSQS (methicillin sensitive and quinolone sensitive); assay: MIC by agar dilution, Staphylococcus aureus MSQS; conditions: 10^4 CFU/spot, 37° C., 24 hours
Procedure: (§1) The following results were obtained on a standard in-vitro test system. The activity is described in terms of the minimum inhibitory concentration (MIC) determined by the agar-dilution technique with an inoculum size of 10^4 CFU/spot. Typically, compounds are active in the range 0.01 to 256 μg/ml.
(§2) Staphylococci were tested on agar, using an inoculum of 10^4 CFU/spot and an incubation temperature of 37° C. for 24 hours—standard test conditions for the expression of methicillin resistance.

[2] = tested on: Staphylococcus aureus MRQR (methicillin resistant and quinolone resistant); assay: MIC by agar dilution, Staphylococcus aureus MRQR; conditions: 10^4 CFU/spot, 37° C., 24 hours
Procedure: as §1, §2

Streptococcus pneumoniae = assay: MIC by agar dilution, Streptococcus pneumoniae; conditions: agar with 5% defibrinated horse blood, 10^4 CFU/spot, 37° C., 5% carbon dioxide, 48 hours
Procedure: as §1
(§3) Streptococci and enterococci were tested on agar supplemented with 5% defibrinated horse blood, an inoculum of 10^4 CFU/spot and an incubation temperature of 37° C. in an atmosphere of 5% carbon dioxide for 48 hours—blood is required for the growth of some of the test organisms. Fastidious Gram negative organisms were tested in Mueller-Hinton broth supplemented with hemin and NAD, grown aerobically for 24 hours at 37° C., and with an innoculum of 5×10^4 CFU/well.

Enterococcus faecium = assay: MIC by agar dilution, Enterococcus faecium; conditions: agar with 5% defibrinated horse blood, 10^4 CFU/spot, 37° C., 5% carbon dioxide, 48 hours
Procedure: as §1, §3

Haemophilus influenzae = assay: MIC, Haemophilus influenzae (fastidious Gram negative, Mueller-Hinton broth); conditions: Mueller-Hinton broth with hemin and NAD, 24 hours, 37° C., 5×10^4 CFU/well
Procedure: as §1, §3

Moraxella catarrhalis = assay: MIC, Moraxella catarrhalis (fastidious Gram negative, Mueller-Hinton broth); conditions: Mueller-Hinton broth with hemin and NAD, 24 hours, 37° C., 5×10^4 CFU/well
Procedure: as §1, §3

[3] = tested on: Linezolid Resistant Streptococcus pneumoniae; assay: MIC by agar dilution, Linezolid Resistant Streptococcus pneumoniae; conditions: agar with 5% defibrinated horse blood, 10^4 CFU/spot, 37° C., 5% carbon dioxide, 48 hours
Procedure: as §1, §3

MIC [1]: 0.25 µg/mL (≈ 0.593 µM)
MIC [2]: 0.25 µg/mL (≈ 0.593 µM)
MIC (Streptococcus pneumoniae): < 0.06 µg/mL
MIC (Enterococcus faecium): 0.25 µg/mL (≈ 0.593 µM)
MIC (Haemophilus influenzae): 2 µg/mL (≈ 4.75 µM)
MIC (Moraxella catarrhalis): 0.25 µg/mL (≈ 0.593 µM)
MIC [3]: 0.5 µg/mL (≈ 1.19 µM)
SMILES: Cn1nnc(-c2ccc(-c3ccc(N4C[C@H](Cn5ccnn5)OC4=O)cc3F)cn2)n1 [Example 1, (5R)-3-(3-Fluoro-4-(6-(2-methyl-2H-tetrazol-5-yl)pyrid-3-yl)phenyl)-5-(1H-1,2,3-triazol-1-ylmethyl)-1,3-oxazolidin-2-one]
